From PubChem BioAssay AID330 (DTP/NCI, 2004) come the findings set out here.

This assay concerns P388 leukemia ip, CD2F1 mice, survival T/C. The assay is described as follows: NCI In Vivo Anticancer Drug Screen. Data for tumor model P388 Leukemia (intraperitoneal) in CD2F1 (CDF1) mice. The settings on record: endpoint: median survival time, higher = longer survival. Put shortly:
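Mice carrying the transplanted tumor received test compound or vehicle. Survival was recorded in each group, and the value is the treated-group measurement divided by that of the vehicle-treated control group.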

Where [1] appears, read: dose: 50.0 mg/kg/injection, schedule: Q01DX009 (ip), vehicle: Klucel (hydroxypropylcellulose) (HPC).
The mark [2] stands for this setting: dose: 25.0 mg/kg/injection, schedule: Q01DX009 (ip), vehicle: saline with Tween-80.
The mark [3] stands for this setting: dose: 50.0 mg/kg/injection, schedule: Q01DX009 (ip), vehicle: saline with Tween-80.
Setting [4] is: dose: 100.0 mg/kg/injection, schedule: Q01DX009 (ip), vehicle: saline with Tween-80.
The mark [5] stands for this setting: dose: 200.0 mg/kg/injection, schedule: Q01DX009 (ip), vehicle: saline with Tween-80.
[6] abbreviates: dose: 100.0 mg/kg/injection, schedule: Q01DX009 (ip), vehicle: Klucel (hydroxypropylcellulose) (HPC).
Where [7] appears, read: dose: 200.0 mg/kg/injection, schedule: Q01DX009 (ip), vehicle: Klucel (hydroxypropylcellulose) (HPC).
The mark [8] stands for this setting: dose: 7.5 mg/kg/injection, schedule: Q01DX005 (ip), vehicle: saline with Tween-80.
Where [9] appears, read: dose: 15.0 mg/kg/injection, schedule: Q01DX005 (ip), vehicle: saline with Tween-80.
[10] abbreviates: dose: 60.0 mg/kg/injection, schedule: Q01DX005 (ip), vehicle: saline with Tween-80.
Where [11] appears, read: dose: 120.0 mg/kg/injection, schedule: Q01DX005 (ip), vehicle: saline with Tween-80.
Where [12] appears, read: dose: 240.0 mg/kg/injection, schedule: Q01DX005 (ip), vehicle: saline with Tween-80.
[13] abbreviates: dose: 50.0 mg/kg/injection, schedule: Q01DX009 (ip), vehicle: saline.

“And” between values parts separate entries of the source, which are not always exact repeats. Identical values can stand only once. Inconclusive results and toxic doses are left out.

With `COc1c(Cl)c(=O)oc2ccc(Cl)cc12`, the T/C runs as follows: (dose: 6.25 mg/kg/injection, schedule: Q01DX009 (ip), vehicle: Klucel (hydroxypropylcellulose) (HPC)) 104 % of control; (dose: 12.5 mg/kg/injection, schedule: Q01DX009 (ip), vehicle: Klucel (hydroxypropylcellulose) (HPC)) 99 % of control; (dose: 25.0 mg/kg/injection, schedule: Q01DX009 (ip), vehicle: Klucel (hydroxypropylcellulose) (HPC)) 97 % of control; under setting [1], 104 % of control.

As for `COc1cccc2c1C(=O)c1c(O)c3c(c(O)c1C2=O)CC(O)(C(C)=O)CC3OC1CC(N=CN(C)C)C(O)C(C)O1` (centres undefined), the T/C runs as follows: (dose: 3.13 mg/kg/injection, schedule: Q04DX003 (ip), vehicle: distilled water + Tween-80) 103 % of control; (dose: 6.25 mg/kg/injection, schedule: Q04DX003 (ip), vehicle: distilled water + Tween-80) 110 % of control; (dose: 12.5 mg/kg/injection, schedule: Q04DX003 (ip), vehicle: distilled water + Tween-80) 99 % of control and 119 % of control; (dose: 50.0 mg/kg/injection, schedule: Q04DX003 (ip), vehicle: distilled water + Tween-80) 123 % of control.

As to `C/C=C/C(/C=C/C)(C(=O)OCCN(CC)CC)C(/C=C/C)(/C=C/C)C(=O)OCCN(CC)CC`, the T/C by setting is: (dose: 50.0 mg/kg/injection, schedule: Q01DX005 (ip), vehicle: saline) 101 % of control; (dose: 100.0 mg/kg/injection, schedule: Q01DX005 (ip), vehicle: saline) 101 % of control; (dose: 200.0 mg/kg/injection, schedule: Q01DX005 (ip), vehicle: saline) 97 % of control.

With `CC(=O)NS(=O)(=O)c1ccc(N=NC2C(=O)N(C(=O)c3cccnc3)N=C2C)cc1` (centres undefined), the T/C was 101 % of control (dose: 100.0 mg/kg/injection, schedule: Q04DX003 (ip), vehicle: saline with Tween-80); 104 % of control (dose: 200.0 mg/kg/injection, schedule: Q04DX003 (ip), vehicle: saline with Tween-80); 109 % of control (dose: 400.0 mg/kg/injection, schedule: Q04DX003 (ip), vehicle: saline with Tween-80).

On to `O=C1OCc2c1[nH]c(=O)[nH]c2=O`, for which the T/C is, setting by setting: (dose: 6.25 mg/kg/injection, schedule: Q01DX009 (ip), vehicle: distilled water + Tween-80) 105 % of control; (dose: 12.5 mg/kg/injection, schedule: Q01DX009 (ip), vehicle: distilled water + Tween-80) 96 % of control; (dose: 25.0 mg/kg/injection, schedule: Q01DX009 (ip), vehicle: distilled water + Tween-80) 110 % of control; (dose: 50.0 mg/kg/injection, schedule: Q01DX009 (ip), vehicle: distilled water + Tween-80) 100 % of control; (dose: 100.0 mg/kg/injection, schedule: Q01DX009 (ip), vehicle: distilled water + Tween-80) 105 % of control and 109 % of control; (dose: 200.0 mg/kg/injection, schedule: Q01DX009 (ip), vehicle: distilled water + Tween-80) 98 % of control. In addition, the T/C (dose: 400.0 mg/kg/injection, schedule: Q01DX009 (ip), vehicle: distilled water + Tween-80) was 90 % of control.

As to `Oc1ccc(N=Cc2ccccn2)cc1`, the T/C was 94 % of control under setting [2]; 105 % of control and 88 % of control under setting [3]; 107 % of control and 88 % of control under setting [4]; 103 % of control under setting [5].

Regarding `O=C(c1ccc(-c2ccccc2)cc1)C1C(c2ccccc2)N1C1CCCCC1` (centres undefined), the T/C runs as follows: (dose: 25.0 mg/kg/injection, schedule: Q01DX009 (ip), vehicle: other) 88 % of control; (dose: 100.0 mg/kg/injection, schedule: Q01DX009 (ip), vehicle: other) 91 % of control.

In the case of `Cc1ccc2c(c1)sc1nnc(Cl)n12`, the T/C was 100 % of control under setting [1], 94 % of control under setting [6] and 88 % of control under setting [7].

Consider `C[C@]12CC[C@H]3[C@@H](CCC4=CC(=O)CC[C@@]43C)[C@@H]1CC[C@@H]2C(=O)C=O`, for which the T/C is 109 % of control under setting [1], 106 % of control under setting [6] and 103 % of control under setting [7].

In the case of `CCn1c(=O)c(C#N)c2n(CC)c3ccccc3n2c1=O`, the T/C runs as follows: (dose: 3.75 mg/kg/injection, schedule: Q01DX005 (ip), vehicle: saline with Tween-80) 100 % of control; under setting [8], 100 % of control; under setting [9], 100 % of control.

Take `COc1ccc(Cc2coc3ccccc3c2=O)cc1OC`: the T/C is 102 % of control under setting [10], 97 % of control under setting [11] and 97 % of control under setting [12].

Regarding `c1ccc(-c2cc3cc4ccccc4cn3c2)cc1`, the T/C was 105 % of control under setting [3]; 108 % of control and 112 % of control and 92 % of control under setting [4]; 117 % of control and 96 % of control under setting [5]; 108 % of control and 120 % of control (dose: 400.0 mg/kg/injection, schedule: Q01DX009 (ip), vehicle: saline with Tween-80); 117 % of control (dose: 600.0 mg/kg/injection, schedule: Q01DX009 (ip), vehicle: saline with Tween-80).

As for `O=c1c2ccccc2nc(CCN(CCCl)CCCl)n1-c1ccc(Cl)cc1`, the T/C (dose: 25.0 mg/kg/injection, schedule: Q01DX001 (ip), vehicle: saline) was 106 % of control; the T/C (dose: 50.0 mg/kg/injection, schedule: Q01DX001 (ip), vehicle: saline) was 113 % of control; the T/C (dose: 200.0 mg/kg/injection, schedule: Q01DX001 (ip), vehicle: saline) was 164 % of control.

`CCCCCN(CCCCC)CC(=O)O[C@H]1C[C@H]2CC[C@@]1(C)C2(C)C`: the T/C by setting is: (dose: 50.0 mg/kg/injection, schedule: Q01DX005 (ip), vehicle: saline with Tween-80) 103 % of control; (dose: 100.0 mg/kg/injection, schedule: Q01DX005 (ip), vehicle: saline with Tween-80) 105 % of control; (dose: 200.0 mg/kg/injection, schedule: Q01DX005 (ip), vehicle: saline with Tween-80) 107 % of control.

For `Cc1cc(C)c2c(c1N)C(=O)CCO2`, the T/C is, setting by setting: under setting [8], 96 % of control; under setting [9], 100 % of control; (dose: 30.0 mg/kg/injection, schedule: Q01DX005 (ip), vehicle: saline with Tween-80) 102 % of control.

Take `CCOC(=O)CCc1nc(C)ncc1C(=O)OCC`: the T/C is, setting by setting: (dose: 12.5 mg/kg/injection, schedule: Q01DX009 (ip), vehicle: saline with Tween-80) 104 % of control; under setting [2], 106 % of control; under setting [3], 100 % of control; under setting [13], 91 % of control; (dose: 200.0 mg/kg/injection, schedule: Q01DX009 (ip), vehicle: saline) 87 % of control.

For the molecule `CCOP(=O)(OCC)C1CCC(=O)O1` (centres undefined), the T/C is 100 % of control (dose: 15.0 mg/kg/injection, schedule: Q01DX005 (ip), vehicle: saline); 99 % of control (dose: 30.0 mg/kg/injection, schedule: Q01DX005 (ip), vehicle: saline); 99 % of control and 94 % of control (dose: 60.0 mg/kg/injection, schedule: Q01DX005 (ip), vehicle: saline).

Turning to `Cc1onc(-c2c(Cl)cccc2Cl)c1C(=O)Oc1ccc(-c2ccc(OC(=O)c3c(-c4c(Cl)cccc4Cl)noc3C)cc2)cc1`, the T/C reads like this: under setting [10], 108 % of control; under setting [11], 102 % of control; under setting [12], 89 % of control.

Regarding `C=CC(C=C)O[Si](C)(C)C(C)(C)C`, the T/C was 101 % of control (dose: 23.0 mg/kg/injection, schedule: Q01DX005 (ip), vehicle: saline); 105 % of control (dose: 46.0 mg/kg/injection, schedule: Q01DX005 (ip), vehicle: saline); 105 % of control (dose: 92.0 mg/kg/injection, schedule: Q01DX005 (ip), vehicle: saline).

As to `O=C(c1ccccc1)c1c(-c2ccccc2)c(=O)n2c(sc3ccccc32)c1C(=O)c1ccccc1`, the T/C by setting is: (dose: 100.0 mg/kg/injection, schedule: Q01DX001 (ip), vehicle: saline with Tween-80) 93 % of control; (dose: 200.0 mg/kg/injection, schedule: Q01DX001 (ip), vehicle: saline with Tween-80) 100 % of control; (dose: 400.0 mg/kg/injection, schedule: Q01DX001 (ip), vehicle: saline with Tween-80) 109 % of control.

As for `CN(C)c1ccc(/C=C2\C=Cc3ccccc32)cc1Cl`, the T/C was 101 % of control (dose: 6.25 mg/kg/injection, schedule: Q01DX009 (ip), vehicle: saline); 87 % of control (dose: 12.5 mg/kg/injection, schedule: Q01DX009 (ip), vehicle: saline); 94 % of control (dose: 25.0 mg/kg/injection, schedule: Q01DX009 (ip), vehicle: saline); 94 % of control under setting [13].
